Test results taken from patent US20150329558A1, “FUSED HETEROCYCLIC COMPOUNDS AS ION CHANNEL MODULATORS” (Gilead Sciences, Inc., priority 2011, published 2015).

Molecular target: wild-type human cardiac sodium channel, hNav1.5 (late INa) (Homo sapiens, UniProt Q14524)
Assay: Late INa screening assay (QPatch whole cell patch clamp)
Format: cell-based
Details: percent block of late INa, compound at 1 μM, 10 μM Tefluthrin, HEK293 hNav1.5; read-out: Late INa 1 μM
Method: The late sodium current (Late INa) and peak sodium current (Peak INa) assays are performed on an automated electrophysiology platform, QPatch 16× (Sophion Bioscience, Copenhagen, Denmark), which uses the whole cell patch clamp technique to measure currents through the cell membrane of up to 16 cells at a time. The assay uses an HEK293 (human embryonic kidney) cell line heterologously expressing the wild-type human cardiac sodium channel, hNav1.5, purchased from Millipore (Billerica, Mass.). No beta subunits were coexpressed with the Na channel alpha subunit. Cells are maintained with standard tissue culture procedures and stable channel expression is maintained with 400 μg/mL Geneticin in the culture medium. […] Experiments are carried out at 23-25° C. For both the Late INa and Peak INa assays, series resistance compensation is set to 100% and series resistance and whole-cell compensation are performed automatically. Currents are digitized at 25 kHz and low-pass filtered at 12 kHz and 10 kHz for the late and peak INa assays, respectively. Currents through open sodium channels are automatically recorded and stored in the Sophion Bioscience Oracle database (Sophion Bioscience, Copehagen, Denmark). Analysis is performed using QPatch Assay and database software and data are compiled in Excel. Compound stocks are routinely made by the Gilead Sample Bank in plastic vials to 10 mM in dimethyl sulfoxide (DMSO). In some cases, when compounds are not soluble in DMSO, they are made in 100% ethanol. Stocks are sonicated as necessary. […] The intracellular solution used to perfuse the inside of the cells for both the Late INa and Peak INa assays contains: 120 mM CsF, 20 mM CsCl, 5 mM EGTA, 5 mM HEPES and pH adjusted to 7.4 with CsOH. Compounds are diluted in extracellular solution to 1 μM in glass vials and then transferred to glass well plates before robotic addition to the cells. […] For the Late INa assay, sodium channels are activated every 10 seconds (0.1 Hz) by depolarizing the cell membrane to −20 mV for 250 milliseconds (ms) from a holding potential of −120 mV. In response to a −20 mV voltage step, typical hNav1.5 sodium currents activate rapidly to a peak negative current and then inactivate nearly completely within 3-4 ms. All compounds were tested to determine their activity in blocking the late sodium current. Late INa was generated by adding 10 μM Tefluthrin (pyrethroid) to the extracellular solution while recording Na currents. To confirm the block of late INa observed using the automated screening method, a second late INa enhancer (ATX-II) and the manual patch clamp method were used. ATX-II and tefluthrin occupy distinct, non-overlapping binding sites and modify Na^+ channel function differently to increase late INa. […] For the purposes of the screening, late INa is defined as the mean current between 225 ms and 250 ms after stepping to −20 mV to activate Na channels. […] Results are reported as percent block of late INa.

Sequence of wild-type human cardiac sodium channel, hNav1.5 (late INa) (Q14524 whole entry): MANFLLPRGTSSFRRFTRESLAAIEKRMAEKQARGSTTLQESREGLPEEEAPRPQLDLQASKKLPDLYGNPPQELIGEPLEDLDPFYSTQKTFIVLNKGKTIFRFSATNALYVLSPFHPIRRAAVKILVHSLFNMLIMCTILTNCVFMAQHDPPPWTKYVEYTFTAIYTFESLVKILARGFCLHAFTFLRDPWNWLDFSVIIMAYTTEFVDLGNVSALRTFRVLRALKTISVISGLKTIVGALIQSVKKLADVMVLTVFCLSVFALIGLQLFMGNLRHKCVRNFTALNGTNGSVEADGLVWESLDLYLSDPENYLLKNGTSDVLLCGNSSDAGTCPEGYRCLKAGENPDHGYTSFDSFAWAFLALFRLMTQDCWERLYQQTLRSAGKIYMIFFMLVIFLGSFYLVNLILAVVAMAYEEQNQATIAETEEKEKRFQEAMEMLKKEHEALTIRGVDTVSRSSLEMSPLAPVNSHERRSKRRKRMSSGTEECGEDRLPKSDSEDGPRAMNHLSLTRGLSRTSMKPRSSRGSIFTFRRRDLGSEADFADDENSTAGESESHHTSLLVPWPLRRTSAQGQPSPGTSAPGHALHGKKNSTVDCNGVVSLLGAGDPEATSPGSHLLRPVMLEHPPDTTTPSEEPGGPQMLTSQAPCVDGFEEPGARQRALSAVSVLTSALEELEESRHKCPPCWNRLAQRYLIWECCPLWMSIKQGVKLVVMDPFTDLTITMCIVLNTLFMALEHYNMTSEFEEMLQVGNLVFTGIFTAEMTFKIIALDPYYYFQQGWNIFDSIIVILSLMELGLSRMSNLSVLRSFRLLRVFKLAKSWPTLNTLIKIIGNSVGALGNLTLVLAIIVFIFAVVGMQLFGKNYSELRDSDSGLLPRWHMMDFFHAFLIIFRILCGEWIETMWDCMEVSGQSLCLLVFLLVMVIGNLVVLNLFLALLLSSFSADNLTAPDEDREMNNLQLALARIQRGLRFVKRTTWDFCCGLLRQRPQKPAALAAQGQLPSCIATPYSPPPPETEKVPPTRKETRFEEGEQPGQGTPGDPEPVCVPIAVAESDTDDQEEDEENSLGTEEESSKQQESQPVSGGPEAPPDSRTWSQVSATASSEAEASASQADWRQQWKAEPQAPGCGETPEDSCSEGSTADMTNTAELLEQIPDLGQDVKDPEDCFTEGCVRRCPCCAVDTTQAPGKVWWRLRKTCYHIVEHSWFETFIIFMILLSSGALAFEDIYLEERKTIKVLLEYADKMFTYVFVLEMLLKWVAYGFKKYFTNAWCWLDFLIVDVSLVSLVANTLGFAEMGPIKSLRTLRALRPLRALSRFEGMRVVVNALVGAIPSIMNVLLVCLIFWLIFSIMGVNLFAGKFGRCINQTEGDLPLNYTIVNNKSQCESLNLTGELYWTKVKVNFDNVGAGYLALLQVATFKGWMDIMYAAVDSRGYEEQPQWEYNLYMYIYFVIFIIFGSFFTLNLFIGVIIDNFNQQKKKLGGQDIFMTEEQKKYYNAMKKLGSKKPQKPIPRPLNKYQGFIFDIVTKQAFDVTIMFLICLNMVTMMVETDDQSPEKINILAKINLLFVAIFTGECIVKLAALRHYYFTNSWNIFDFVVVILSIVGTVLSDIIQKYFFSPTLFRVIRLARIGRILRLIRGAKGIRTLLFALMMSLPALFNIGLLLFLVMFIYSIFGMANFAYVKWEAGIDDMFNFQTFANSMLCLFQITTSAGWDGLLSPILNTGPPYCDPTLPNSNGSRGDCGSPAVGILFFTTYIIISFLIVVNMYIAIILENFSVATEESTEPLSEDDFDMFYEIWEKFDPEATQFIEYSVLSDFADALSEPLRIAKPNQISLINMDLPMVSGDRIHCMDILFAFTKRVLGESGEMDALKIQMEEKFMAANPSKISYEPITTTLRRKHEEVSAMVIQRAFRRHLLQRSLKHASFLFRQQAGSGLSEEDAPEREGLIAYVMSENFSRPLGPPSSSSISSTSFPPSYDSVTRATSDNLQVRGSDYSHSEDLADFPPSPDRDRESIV

Row | Structure (SMILES) | inhibition at 1 µM
1 | O=C(N1CCC1)N1CCc2ccc(-c3ccc(C(F)(F)F)cc3)cc2C1 [IX-88, azetidin-1-yl(7-(4-(trifluoromethyl)phenyl)-3,4-dihydroisoquinolin-2(1H)-yl)methanone] | 25%
2 | N#CC1(n2nnc3ccc(-c4ccc(OC(F)(F)F)cc4)cc3c2=O)CC1 [II-33, 1-(4-oxo-6-(4-(trifluoromethoxy)phenyl)benzo[d][1,2,3]triazin-3 (4H)-yl)cyclopropanecarbonitrile] | 26%
3 | O=c1c2cc(-c3ccc(OC(F)(F)F)cc3)ccc2nnn1OCc1cccnc1 [II-59, 3-(pyridin-3-ylmethoxy)-6-(4-(trifluoromethoxy)phenyl)benzo[d][1,2,3]triazin-4(3H)-one] | 22%
4 | CC1(O)CN(C(=O)N2CCc3ccc(-c4ccc(C(F)(F)F)cc4)cc3C2)C1 [IX-112, (3-hydroxy-3-methylazetidin-1-yl)(7-(4-(trifluoromethyl)phenyl)-3,4-dihydroisoquinolin-2(1H)-yl)methanone] | 18%
5 | Cc1nn(C)c(C)c1C(=O)N1CCc2ccc(-c3ccc(C(F)(F)F)cc3)cc2C1 [IX-26, (7-(4-(trifluoromethyl)phenyl)-3,4-dihydroisoquinolin-2(1H)-yl)(1,3,5-trimethyl-1H-pyrazol-4-yl)methanone] | 15%
6 | O=C(N1CCc2ccc(-c3ccc(C(F)(F)F)cc3)cc2C1)N1CC(F)(F)C1 [IX-92, (3,3-difluoroazetidin-1-yl)(7-(4-(trifluoromethyl)phenyl)-3,4-dihydroisoquinolin-2(1H)-yl)methanone] | 17%
7 | O=C(c1cnnn1-c1ccccc1)N1CCc2ccc(-c3ccc(C(F)(F)F)cc3)cc2C1 [IX-116, (1-phenyl-1H-1,2,3-triazol-5-yl)(7-(4-(trifluoromethyl)phenyl)-3,4-dihydroisoquinolin-2(1H)-yl)methanone] | 29%
8 | CCOC(=O)Cn1cc(C(=O)N2CCc3ccc(-c4ccc(C(F)(F)F)cc4)cc3C2)nn1 [IX-119, ethyl 2-(4-(7-(4-(trifluoromethyl)phenyl)-1,2,3,4-tetrahydroisoquinoline-2-carbonyl)-1H-1,2,3-triazol-1-yl)acetate] | 15%
9 | O=c1c2cc(-c3ccc(OC(F)(F)F)cc3)ccc2nnn1Cc1ccccc1 [II-42, 3-benzyl-6-(4-(trifluoromethoxy)phenyl)benzo[d][1,2,3]triazin-4(3H)-one] | 23%
10 | C[C@@H]1CC[C@H](C)N1C(=O)N1CCc2ccc(-c3ccc(C(F)(F)F)cc3)cc2C1 [IX-106] | 21%
11 | CS(=O)(=O)C1CN(C(=O)N2CCc3ccc(-c4ccc(C(F)(F)F)cc4)cc3C2)C1 [IX-104, (3-(methylsulfonyl)azetidin-1-yl)(7-(4-(trifluoromethyl)phenyl)-3,4-dihydroisoquinolin-2(1H)-yl)methanone] | 20%
12 | Cc1nn(C)cc1C(=O)N1CCc2ccc(-c3ccc(C(F)(F)F)cc3)cc2C1 [IX-28, (1,3-dimethyl-1H-pyrazol-4-yl)(7-(4-(trifluoromethyl)phenyl)-3,4-dihydroisoquinolin-2(1H)-yl)methanone] | 24%
13 | Cc1nonc1Cn1ncc2ccc(-c3ccc(OC(F)(F)F)cc3)cc2c1=O [III-11, 2-((4-methyl-1,2,5-oxadiazol-3-yl)methyl)-7-(4-(trifluoromethoxy)phenyl)phthalazin-1 (2H)-one] | 30%
14 | CC1CCN(C(=O)N2CCc3ccc(-c4ccc(C(F)(F)F)cc4)cc3C2)C1 (centres unmarked) [IX-90, (3-methylpyrrolidin-1-yl)(7-(4-(trifluoromethyl)phenyl)-3,4-dihydroisoquinolin-2(1H)-yl)methanone] | 27%
15 | O=c1c2cc(-c3ccc(OC(F)(F)F)cc3)ccc2nnn1Cn1nc2ccccc2n1 [II-28, 3-((2H-benzo[d][1,2,3]triazol-2-yl)methyl)-6-(4-(trifluoromethoxy)phenyl)benzo[d][1,2,3]triazin-4(3H)-one] | 19%
16 | N#Cc1cccc(Cn2ncc3ccc(-c4ccc(OC(F)(F)F)cc4)cc3c2=O)n1 [III-12, 6-((1-oxo-7-(4-(trifluoromethoxy)phenyl)phthalazin-2(1H)-yl)methyl)picolinonitrile] | 21%

Row | Structure (SMILES) | inhibition at 1 µM
17 | O=C(c1ccncn1)N1CCc2ccc(-c3ccc(C(F)(F)F)cc3)cc2C1 [IX-32, pyrimidin-4-yl(7-(4-(trifluoromethyl)phenyl)-3,4-dihydroisoquinolin-2(1H)-yl)methanone] | 29%
18 | O=C(N1CCCC1)N1CCc2ccc(-c3ccc(OC(F)(F)F)cc3)cc2C1 [IX-122, pyrrolidin-1-yl(7-(4-(trifluoromethoxy)phenyl)-3,4-dihydroisoquinolin-2(1H)-yl)methanone] | 36%
19 | O=C1c2cc(C#Cc3ccc(OC(F)(F)F)cc3)ccc2CCN1Cc1ncccn1 [IX-5] | 20%
20 | O=C(N1CCc2ccc(-c3ccc(C(F)(F)F)cc3)cc2C1)N1CC[C@@H](CO)C1 [IX-101, (R)-(3-(hydroxymethyl)pyrrolidin-1-yl)(7-(4-(trifluoromethyl)phenyl)-3,4-dihydroisoquinolin-2(1H)-yl)methanone] | 15%
21 | O=C(N1CCOCC1)N1CCc2ccc(-c3ccc(C(F)(F)F)cc3)cc2C1 [IX-52, morpholino(7-(4-(trifluoromethyl)phenyl)-3,4-dihydroisoquinolin-2(1H)-yl)methanone] | 26%
22 | O=C1c2cc(C#Cc3ccc(C(F)(F)F)cc3)ccc2CCN1Cc1ncccn1 [IX-4] | 20%
23 | O=c1c2cc(-c3ccc(C(F)(F)F)nc3)ccc2nnn1CCOc1ncccn1 [Compound V-11, 3-(2-(pyrimidin-2-yloxy)ethyl)-6-(6-(trifluoromethyl)pyridin-3-yl)benzo[d][1,2,3]triazin-4(3H)-one] | 22%
24 | O=c1c2cc(-c3ccc(OC(F)(F)F)cc3)ccc2nnn1CC1(Cn2ccnc2)CC1 [II-58, 3-((1-((1H-imidazol-1-yl)methyl)cyclopropyl)methyl)-6-(4-(trifluoromethoxy)phenyl)benzo[d][1,2,3]triazin-4(3H)-one] | 25%
25 | O=C1c2cc(-c3ccc(C(F)(F)F)cc3)ccc2OCN1Cc1ccccc1 [VIII-21, 3-benzyl-6-(4-(trifluoromethyl)phenyl)-2H-benzo[e][1,3]oxazin-4(3H)-one] | 58%
26 | O=C1c2cc(-c3ccc(C(F)(F)F)cc3F)ccc2OCN1Cc1ncccn1 [VIII-18, 6-(2-fluoro-4-(trifluoromethyl)phenyl)-3-(pyrimidin-2-ylmethyl)-2H-benzo[e][1,3]oxazin-4(3H)-one] | 54%
27 | Cn1c(CCn2ncc3ccc(-c4ccc(OC(F)(F)F)cc4)cc3c2=O)nc2ccccc21 [III-25, 2-(2-(1-methyl-1H-benzo[d]imidazol-2-yl)ethyl)-7-(4-(trifluoromethoxy)phenyl)phthalazin-1 (2H)-one] | 16%
28 | O=C(NC1CCCC1)N1CCc2ccc(-c3ccc(C(F)(F)F)cc3)cc2C1 [IX-77, N-cyclopentyl-7-(4-(trifluoromethyl)phenyl)-3,4-dihydroisoquinoline-2(1H)-carboxamide] | 22%
29 | O=C(Nc1ccccc1)N1CCc2ccc(-c3ccc(C(F)(F)F)cc3)cc2C1 [IX-42, N-phenyl-7-(4-(trifluoromethyl)phenyl)-3,4-dihydroisoquinoline-2(1H)-carboxamide] | 25%
30 | O=C(c1ncccn1)N1CCc2ccc(-c3ccc(C(F)(F)F)cc3F)cc2C1 [IX-22, (7-(2-fluoro-4-(trifluoromethyl)phenyl)-3,4-dihydroisoquinolin-2(1H)-yl)(pyrimidin-2-yl)methanone] | 29%
31 | O=C(c1cncnc1)N1CCc2ccc(-c3ccc(C(F)(F)F)cc3)cc2C1 [IX-33, pyrimidin-5-yl(7-(4-(trifluoromethyl)phenyl)-3,4-dihydroisoquinolin-2(1H)-yl)methanone] | 21%
32 | Cc1nc(Cn2nnc3ccc(-c4ccc(OCC(F)(F)F)nc4)cc3c2=O)no1 [Compound V-2, 3-((5-methyl-1,2,4-oxadiazol-3-yl)methyl)-6-(6-(2,2,2-trifluoroethoxy)pyridin-3-yl)benzo[d][1,2,3]triazin-4(3H)-one] | 17%
